Where only a bound is given, the exact number is not on record here.

This experiment has as its system PGE2 production from IL-1β-stimulated MG-63 cells. Briefly: Suppressing action on PGE2 production from IL-1β-stimulated MG-63 cells. The settings on record: Homo sapiens, IL-1β 1 ng/ml, 18 hours, read-out: PGE2 production suppression ratio. The experiment is classed as cell-based. An excerpt: 1. Suppressing Action on PGE2 Production from IL-1β-Stimulated MG-63 Cells (1) Method for Measurement
An action of suppressing PGE2 production caused by interleukin (IL) 1β as an inflammatory stimulant was studied by the following method. Cells of MG-63, which is a human osteosarcoma cell line (purchased from Dainippon Pharmaceutical), were suspended in EMEM medium (GIBCO) containing 10% fetal bovine serum (BioFluid), and then inoculated to each well of 96-well culture plate at a density of 2×10^4 cells/well and cultured overnight. The medium was changed to EMEM medium containing 0.5% fetal bovine serum, and then a test compound was added with each well. Human interleukin-1β (ENDOGEN) was further added as an inflammatory stimulant at a final concentration of 1 ng/ml. The cells were further cultured for 18 hours. The culture supernatant was collected, and the PGE2 concentration in the culture supernatant was measured by using EIA kit (CAYMAN). By using a well which was not added with the stimulant as a negative control and a well which was added only with the stimulant as a positive control, suppression ratios on PGE2 production were calculated from produced amounts of PGE2 in the well added with the test compound using the following equation. PGE2 production suppression ratio=[1−(C−B)/(A−B)]×100 • A: PGE2 production amount of positive control • B: PGE2 production amount of negative control • C: PGE2 production amount in well added with test compound
For the compound `O=C(O)CCc1ccc(OCC2CCCC2)c(-c2ccc3ccc(O)cc3c2)c1` [Compound 008, 3-[4-cyclopentylmethyloxy-3-(7-hydroxynaphthalen-2-yl)-phenyl]propionic acid], the inhibition at 0.4 µM is ≥ 50%.

With `CN(C)c1ccc2cc(-c3cc(CCC(=O)O)ccc3OCC3CCCC3)ccc2c1` [Compound 018, 3-{4-cyclopentylmethyloxy-3-[6-(N,N-dimethylamino)naphthalen-2-yl]phenyl}propionic acid], the inhibition at 0.4 µM is ≥ 50%.

Take `NS(=O)(=O)Nc1ccc2cc(-c3cc(CCC(=O)O)ccc3OCC3CCCC3)ccc2c1` [Compound 020, 3-[4-cyclopentylmethyloxy-3-(6-sulfamoylaminonaphthalen-2-yl)phenyl]propionic acid]: the inhibition at 0.4 µM is ≥ 50%.

On to `CS(=O)(=O)c1ccc2cc(-c3cc(CCC(=O)O)ccc3OCC3CCCC3)ccc2c1` [Compound 022, 3-[4-cyclopentylmethyloxy-3-(6-methanesulfonylnaphthalen-2-yl)phenyl]propionic acid], for which the inhibition at 0.4 µM was ≥ 50%.

`NS(=O)(=O)c1ccc2cc(-c3cc(CCC(=O)O)ccc3OCC3CCCC3)ccc2c1` [Compound 024, 3-[4-cyclopentylmethyloxy-3-(6-sulfamoylnaphthalen-2-yl)phenyl]propionic acid]: the inhibition at 0.4 µM is ≥ 50%.

Take `CNS(=O)(=O)c1ccc2cc(-c3cc(CCC(=O)O)ccc3OCC3CCCC3)ccc2c1` [Compound 026, 3-{4-cyclopentylmethyloxy-3-[6-(N-methylsulfamoyl)naphthalen-2-yl]phenyl}propionic acid]: the inhibition at 0.4 µM is ≥ 50%.

For `CN(C)S(=O)(=O)c1ccc2cc(-c3cc(CCC(=O)O)ccc3OCC3CCCC3)ccc2c1` [Compound 028, 3-{4-cyclopentylmethyloxy-3-[6-(N,N-dimethylsulfamoyl)naphthalen-2-yl]phenyl}propionic acid], the inhibition at 0.4 µM is ≥ 50%.

Take `O=C(O)CCc1ccc(OCC2CCCCC2)c(-c2ccc3cc(C(=O)O)ccc3c2)c1` [Compound 029, 3-[3-(6-carboxynaphthalen-2-yl)-4-cyclohexylmethyloxyphenyl]propionic acid]: the inhibition at 0.4 µM was ≥ 50%.

As for `CCCCOc1ccc(CCC(=O)O)cc1-c1ccc2ccccc2c1` [Compound 037, 3-[4-butyloxy-3-(naphthalen-2-yl)phenyl]propionic acid], the inhibition at 0.4 µM is ≥ 50%.

Take `CC(C)Oc1ccc(CCC(=O)O)cc1-c1ccc2ccccc2c1` [Compound 041, 3-[4-isopropyloxy-3-(naphthalen-2-yl)phenyl]propionic acid]: the inhibition at 0.4 µM was ≥ 50%.

For `O=C(O)CCc1ccc(OCCC2CCCCC2)c(-c2ccc3ccccc3c2)c1` [Compound 049, 3-[4-(2-cyclohexylethyloxy)-3-(naphthalen-2-yl)phenyl]propionic acid], the inhibition at 0.4 µM was ≥ 50%.

`O=C(O)CCc1ccc(OCc2ccco2)c(-c2ccc3ccccc3c2)c1` [Compound 058, 3-{4-[(furan-2-yl)methyloxy]-3-(naphthalen-2-yl)phenyl}propionic acid]: the inhibition at 0.4 µM is ≥ 50%.

For the compound `O=C(O)CCc1ccc(OCc2cccnc2)c(-c2ccc3ccccc3c2)c1` [Compound 060, 3-{3-(naphthalen-2-yl)-4-[(pyridin-3-yl)methyloxy]phenyl}propionic acid], the inhibition at 0.4 µM is ≥ 50%.

For the compound `CCc1ccc(CCOc2ccc(CCC(=O)O)cc2-c2ccc3ccccc3c2)nc1` [Compound 062, 3-{4-[2-(5-ethylpyridin-2-yl)ethyloxy]-3-(naphthalen-2-yl)phenyl}propionic acid], the inhibition at 0.4 µM is ≥ 50%.

In the case of `Cc1oc(-c2ccccc2)nc1CCOc1ccc(CCC(=O)O)cc1-c1ccc2ccccc2c1` [Compound 064, 3-{4-[2-(5-methyl-2-phenyloxazol-4-yl)ethyloxy]-3-(naphthalen-2-yl)phenyl}propionic acid], the inhibition at 0.4 µM was ≥ 50%.

Regarding `COc1ccc2cc(-c3cc(CCC(=O)O)ccc3OCC3CCCCC3)ccc2c1` [Compound 068, 3-[4-cyclohexylmethyloxy-3-(6-methoxynaphthalen-2-yl)phenyl]propionic acid], the inhibition at 0.4 µM is ≥ 50%.

With `O=C(O)CCc1ccc(OCC2CCCCC2)c(-c2cccc3ccccc23)c1` [Compound 070, 3-[4-cyclohexylmethyloxy-3-(naphthalen-1-yl)phenyl]propionic acid], the inhibition at 0.4 µM is ≥ 50%.

Turning to `O=C(O)CCc1ccc(OCC2CCCCC2)c(-c2ccc3cc(OCCO)ccc3c2)c1` [Compound 071, 3-{4-cyclohexylmethyloxy-3-[6-(2-hydroxyethyloxy)naphthalen-2-yl]phenyl}propionic acid], the inhibition at 0.4 µM was ≥ 50%.

Consider `O=C(O)CCc1ccc(OCC2CCCCC2)c(-c2ccc3cc(OCC(=O)O)ccc3c2)c1` [Compound 072, 3-[3-(6-carboxymethyloxynaphthalen-2-yl)-4-cyclohexylmethyloxyphenyl]propionic acid], for which the inhibition at 0.4 µM was ≥ 50%.

As to `CN(C)C(=O)COc1ccc2cc(-c3cc(CCC(=O)O)ccc3OCC3CCCCC3)ccc2c1` [Compound 074, 3-{4-cyclohexylmethyloxy-3-[6-(N,N-dimethylcarbamoylmethyloxy)-naphthalen-2-yl]phenyl}propionic acid], the inhibition at 0.4 µM was ≥ 50%.

Take `CC(=O)Nc1ccc2cc(-c3cc(CCC(=O)O)ccc3OCC3CCCC3)ccc2c1` [Compound 077, 3-[3-(6-acetylaminonaphthalen-2-yl)-4-cyclopentylmethyloxy-phenyl]propionic acid]: the inhibition at 0.4 µM was ≥ 50%.

`CS(=O)(=O)Nc1ccc2cc(-c3cc(CCC(=O)O)ccc3OCC3CCCC3)ccc2c1` [Compound 085, 3-[4-cyclopentylmethyloxy-3-(6-methanesulfonylaminonaphthalen-2-yl)phenyl]propionic acid]: the inhibition at 0.4 µM was ≥ 50%.

Consider `O=C(O)CCc1ccc(OCC2CCCC2)c(-c2ccc3ccc(NC(=O)c4ccco4)cc3c2)c1` [Compound 090, 3-(4-cyclopentylmethyloxy-3-{7-[(furan-2-carbonyl)amino]naphthalen-2-yl}phenyl)propionic acid], for which the inhibition at 0.4 µM is ≥ 50%.

As for `O=C(O)CCc1cc(Cl)c(OCC2CCCC2)c(-c2ccc3ccccc3c2)c1` [Compound 092, 3-[3-chloro-4-cyclopentylmethyloxy-5-(naphthalen-2-yl)phenyl]propionic acid], the inhibition at 0.4 µM is ≥ 50%.

As for `COC(=O)CCc1cc(N)c(OCC2CCCC2)c(-c2ccc3ccccc3c2)c1` [Compound 094, methyl 3-[3-amino-4-cyclopentylmethyloxy-5-(naphthalen-2-yl)phenyl]propionate], the inhibition at 0.4 µM was ≥ 50%.

As for `O=C(O)Cc1ccc(OCC2CCCCC2)c(-c2ccc3ccccc3c2)c1` [Compound 096, 4-cyclohexylmethyloxy-3-(naphthalen-2-yl)phenylacetic acid], the inhibition at 0.4 µM is ≥ 50%.

`Cc1c[nH]c2ccc(-c3cc(CCC(=O)O)ccc3OCC3CCCC3)cc12` [Compound 112, 3-[4-cyclopentylmethyloxy-3-(3-methyl-1H-indol-5-yl)phenyl]propionic acid]: the inhibition at 0.4 µM is ≥ 50%.

As for `O=C(O)CCc1ccc(OC2CCCC2)c(-c2cccc3[nH]ccc23)c1` [Compound 118, 3-[4-cyclopentyloxy-3-(1H-indol-4-yl)phenyl]propionic acid], the inhibition at 0.4 µM was ≥ 50%.

For `O=C(O)CCc1ccc(OC2CCCCC2)c(-c2cccc3[nH]ccc23)c1` [Compound 120, 3-[4-cyclohexyloxy-3-(1H-indol-4-yl)phenyl]propionic acid], the inhibition at 0.4 µM is ≥ 50%.

As for `Cn1ccc2c(-c3cc(CCC(=O)O)ccc3OCC3CCCC3)cccc21` [Compound 122, 3-[4-cyclopentylmethyloxy-3-(1-methyl-1H-indol-4-yl)phenyl]propionic acid], the inhibition at 0.4 µM was ≥ 50%.

For the compound `Cn1ccc2c(-c3cc(CCC(=O)O)ccc3OC3CCCC3)cccc21` [Compound 124, 3-[4-cyclopentyloxy-3-(1-methyl-1H-indol-4-yl)phenyl]propionic acid], the inhibition at 0.4 µM was ≥ 50%.

With `O=C(O)CCc1ccc(OCC2CCCCC2)c(-c2ccc3cc[nH]c3c2)c1` [Compound 128, 3-[4-cyclohexylmethyloxy-3-(1H-indol-6-yl)phenyl]propionic acid], the inhibition at 0.4 µM was ≥ 50%.

For `CCCCOc1ccc(CCC(=O)O)cc1-c1ccc2[nH]ccc2c1` [Compound 130, 3-[4-butyloxy-3-(1H-indol-5-yl)phenyl]propionic acid], the inhibition at 0.4 µM was ≥ 50%.

As for `Cc1ccccc1COc1ccc(CCC(=O)O)cc1-c1ccc2[nH]ccc2c1` [Compound 134, 3-[3-(1H-indol-5-yl)-4-(2-methylphenylmethyloxy)phenyl]propionic acid], the inhibition at 0.4 µM is ≥ 50%.

As for `Cc1cccc(COc2ccc(CCC(=O)O)cc2-c2ccc3[nH]ccc3c2)c1` [Compound 136, 3-[3-(1H-indol-5-yl)-4-(3-methylphenylmethyloxy)phenyl]propionic acid], the inhibition at 0.4 µM was ≥ 50%.

For `Cc1ccc(COc2ccc(CCC(=O)O)cc2-c2ccc3[nH]ccc3c2)cc1` [Compound 138, 3-[3-(1H-indol-5-yl)-4-(4-methylphenylmethyloxy)phenyl]propionic acid], the inhibition at 0.4 µM was ≥ 50%.

Values taken from patent US6867320B2, “Substituted phenylalkanoic acid derivatives and use thereof” (Asahi Kasei Pharma Corporation, priority 2002, dated 2005).
